{"source": "patent US10793563B2", "about": "“GCN2 inhibitors and uses thereof” (Merck Patent GmbH, priority 2018, dated 2020)"}
{"biological_target": "GCN2 kinase (Homo sapiens (Human), UniProt Q9P2K8)", "sequence (Q9P2K8 whole entry)": "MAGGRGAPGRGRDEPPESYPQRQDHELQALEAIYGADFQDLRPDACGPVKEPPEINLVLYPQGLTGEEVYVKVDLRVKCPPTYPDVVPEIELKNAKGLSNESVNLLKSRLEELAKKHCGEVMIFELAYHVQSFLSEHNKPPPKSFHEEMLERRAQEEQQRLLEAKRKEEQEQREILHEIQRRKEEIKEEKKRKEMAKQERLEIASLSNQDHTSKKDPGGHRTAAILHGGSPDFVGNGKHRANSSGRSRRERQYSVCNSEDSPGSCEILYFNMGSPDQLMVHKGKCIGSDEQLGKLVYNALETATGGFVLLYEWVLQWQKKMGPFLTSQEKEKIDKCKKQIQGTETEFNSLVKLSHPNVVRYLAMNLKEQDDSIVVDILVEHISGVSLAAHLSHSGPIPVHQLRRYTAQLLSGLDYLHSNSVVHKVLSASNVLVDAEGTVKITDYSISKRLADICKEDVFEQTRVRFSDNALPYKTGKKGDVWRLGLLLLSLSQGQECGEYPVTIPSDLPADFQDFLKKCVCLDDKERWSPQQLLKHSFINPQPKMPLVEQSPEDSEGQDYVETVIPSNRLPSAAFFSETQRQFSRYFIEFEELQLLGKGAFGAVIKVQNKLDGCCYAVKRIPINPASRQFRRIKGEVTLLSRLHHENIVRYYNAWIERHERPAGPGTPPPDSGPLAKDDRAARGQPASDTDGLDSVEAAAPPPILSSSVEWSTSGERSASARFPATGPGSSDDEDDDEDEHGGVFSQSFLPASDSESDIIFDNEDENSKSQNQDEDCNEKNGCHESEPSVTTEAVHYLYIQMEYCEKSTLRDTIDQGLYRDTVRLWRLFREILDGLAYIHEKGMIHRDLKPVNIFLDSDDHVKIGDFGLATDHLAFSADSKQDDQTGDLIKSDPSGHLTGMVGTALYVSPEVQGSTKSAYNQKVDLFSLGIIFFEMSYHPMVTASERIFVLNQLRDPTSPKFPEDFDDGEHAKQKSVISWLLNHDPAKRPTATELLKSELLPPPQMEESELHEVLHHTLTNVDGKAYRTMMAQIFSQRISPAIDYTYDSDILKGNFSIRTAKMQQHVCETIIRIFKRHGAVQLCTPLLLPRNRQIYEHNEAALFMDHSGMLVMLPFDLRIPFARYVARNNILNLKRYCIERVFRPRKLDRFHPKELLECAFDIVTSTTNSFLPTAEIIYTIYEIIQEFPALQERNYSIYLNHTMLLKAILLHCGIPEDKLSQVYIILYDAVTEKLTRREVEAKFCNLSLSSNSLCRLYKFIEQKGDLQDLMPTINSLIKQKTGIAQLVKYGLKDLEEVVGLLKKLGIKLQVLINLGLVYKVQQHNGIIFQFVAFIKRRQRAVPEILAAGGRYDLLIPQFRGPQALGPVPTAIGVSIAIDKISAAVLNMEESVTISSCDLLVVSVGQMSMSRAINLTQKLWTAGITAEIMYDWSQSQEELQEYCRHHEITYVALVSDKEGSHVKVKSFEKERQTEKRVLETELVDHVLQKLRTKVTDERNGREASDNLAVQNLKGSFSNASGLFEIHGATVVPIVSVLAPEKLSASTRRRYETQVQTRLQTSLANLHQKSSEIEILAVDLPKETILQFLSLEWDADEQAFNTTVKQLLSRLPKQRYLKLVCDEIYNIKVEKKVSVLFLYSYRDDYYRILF", "assay": "GCN2 Enzyme Inhibition Assay (Transcreener ADP2 fluorescence polarization)", "format": "biochemical", "conditions": "280 μM ATP, 200 μM (RS)7 peptide, 4 nM GCN2, 25° C.", "description": "(§1) Compounds were screened for their ability to inhibit GCN2 kinase activity using a Transcreener® ADP^2 fluorescence polarization assay that detects ADP levels (BellBrook Labs, WI). Assays were carried out in a buffer consisting of 25 mM Tris-HCl (pH 7.5), 50 mM NaCl, 10 mM MgCl2 and 1 mM DTT. […] Assays were carried out at 25° C. in the presence of a (typical) final concentration of 4 nM GCN2 kinase. An assay buffer containing GCN2 kinase and (RS)7 was prepared. […] The plate was incubated for 10 minutes at 25° C. prior to the addition of 4.7 μL of ATP stock buffer to initiate the enzyme reaction. The reaction was allowed to proceed for 1 hour at 25° C., prior to the addition of 10 μL detection buffer (consisting of appropriate concentrations of ADP^2 antibody and ADP Alexa633 tracer in 1× stop and detect buffer as supplied by BellBrook Labs). […] Percentage inhibition of enzyme activity was then calculated at each compound dose. IC50 and Ki(app) (using known assay and kinetic parameters) values were calculated from percentage inhibition data using a non-linear, tight-binding algorithm. All data analysis was undertaken using the Screener® software package (Genedata, Switzerland).", "units": {"IC50": "nM"}}
{"smiles": "Cc1nn(C)cc1[C@@H]1C[C@@H](C)CN(c2nccc(-c3cnc4ccc(C(F)(F)F)cn34)n2)C1", "note": "[I-140, 3-(2-((3S,5R)-3-(1,3-dimethyl-1H-pyrazol-4-yl)-5-methylpiperidin-1-yl)pyrimidin-4-yl)-6-(trifluoromethyl)imidazo[1,2-a]pyridine]", "IC50": "100 to 1000"}
{"smiles": "NC(=O)[C@H]1CN(c2ccnc(-c3cnc4cc(F)c(Cl)cn34)n2)CCN1C1CC1", "note": "[I-425, (R)-4-(2-(6-chloro-7-fluoroimidazo[1,2-a]pyridin-3-yl)pyrimidin-4-yl)-1-cyclopropylpiperazine-2-carboxamide]", "IC50": "100 to 1000"}
{"smiles": "CC1(O)CC(C(=O)N2CCN(c3ccnc(-c4cnc5ccc(C(F)(F)F)cn45)n3)CC2c2cn[nH]c2)C1", "note": "(stereo not drawn) [I-509, (2-(1H-pyrazol-4-yl)-4-(2-(6-(trifluoromethyl)imidazo[1,2-a]pyridin-3-yl)pyrimidin-4-yl)piperazin-1-yl)(3-hydroxy-3-methylcyclobutyl)methanone]", "IC50": "100 to 1000"}
{"smiles": "C[C@@H]1CN(c2ccnc(-c3cnc4ccc(C(F)(F)F)cn34)n2)C[C@H](C)N1C(=O)c1cc2n(n1)CCOC2", "note": "[I-513, (6,7-dihydro-4H-pyrazolo[5,1-c][1,4]oxazin-2-yl)(cis-2,6-dimethyl-4-(2-(6-(trifluoromethyl)imidazo[1,2-a]pyridin-3-yl)pyrimidin-4-yl)piperazin-1-yl)methanone]", "IC50": "100 to 1000"}
{"smiles": "Cc1nnc(C2CN(c3ccnc(-c4cnc5ccc(C(F)(F)F)cn45)n3)CCN2)[nH]1", "note": "(stereo not drawn) [I-337, 3-(4-(3-(5-methyl-4H-1,2,4-triazol-3-yl)piperazin-1-yl)pyrimidin-2-yl)-6-(trifluoromethyl)imidazo[1,2-a]pyridine]", "IC50": "100 to 1000"}
{"smiles": "CC1(C(N)=O)CCCN(c2ccnc(-c3cnc4ccc(C(F)(F)F)cn34)n2)C1", "note": "(stereo not drawn) [I-192, 3-methyl-1-(2-(6-(trifluoromethyl)imidazo[1,2-a]pyridin-3-yl)pyrimidin-4-yl)piperidine-3-carboxamide]", "IC50": "10 to 100"}
{"smiles": "CC1CN(c2ccnc(-c3cnc4ccc(C(F)(F)F)cn34)n2)CC(C)N1", "note": "(stereo not drawn) [I-231, 3-(4-(3,5-dimethylpiperazin-1-yl)pyrimidin-2-yl)-6-(trifluoromethyl)imidazo[1,2-a]pyridine]", "IC50": "100 to 1000"}
{"smiles": "C[C@@H]1CN(c2ccnc(-c3cnc4ccc(C(F)(F)F)cn34)n2)C[C@H](C)N1C(=O)C1CC1(F)F", "note": "(stereo partly drawn) [I-438, (2,2-difluorocyclopropyl)(cis-2,6-dimethyl-4-(2-(6-(trifluoromethyl)imidazo[1,2-a]pyridin-3-yl)pyrimidin-4-yl)piperazin-1-yl)methanone]", "IC50": "10 to 100"}
{"smiles": "CC(O)C(=O)N[C@H]1C[C@H](O)CN(c2ccnc(-c3cnc4ccc(C(F)(F)F)cn34)n2)C1", "note": "(stereo partly drawn) [I-254, 2-hydroxy-N-((3S,5S)-5-hydroxy-1-(2-(6-(trifluoromethyl)imidazo[1,2-a]pyridin-3-yl)pyrimidin-4-yl)piperidin-3-yl)propanamide]", "IC50": "100 to 1000"}
{"smiles": "C[C@@H]1CN(c2ccnc(-c3cnc4ccc(C(F)(F)F)cn34)n2)C[C@H](C)N1C(=O)c1ccncc1", "note": "[I-483, (cis-2,6-dimethyl-4-(2-(6-(trifluoromethyl)imidazo[1,2-a]pyridin-3-yl)pyrimidin-4-yl)piperazin-1-yl)(pyridin-4-yl)methanone]", "IC50": "100 to 1000"}
{"smiles": "C[C@@H]1CN(c2ccnc(-c3cnc4ccc(C(F)(F)F)cn34)n2)C[C@H](C)N1C(=O)C1(C)CC1", "note": "[I-486, (cis-2,6-dimethyl-4-(2-(6-(trifluoromethyl)imidazo[1,2-a]pyridin-3-yl)pyrimidin-4-yl)piperazin-1-yl)(1-methylcyclopropyl)methanone]", "IC50": "100 to 1000"}
{"smiles": "O=C(O)C1(O)CCCN(c2ccnc(-c3cnc4ccc(C(F)(F)F)cn34)n2)C1", "note": "(stereo not drawn) [I-214, 3-hydroxy-1-(2-(6-(trifluoromethyl)imidazo[1,2-a]pyridin-3-yl)pyrimidin-4-yl)piperidine-3-carboxylic acid]", "IC50": "100 to 1000"}
{"smiles": "CC1(C)CN(c2ccnc(-c3cnc4ccc(C(F)(F)F)cn34)n2)CCN1", "note": "[I-334, 3-(4-(3,3-dimethylpiperazin-1-yl)pyrimidin-2-yl)-6-(trifluoromethyl)imidazo[1,2-a]pyridine]", "IC50": "100 to 1000"}
{"smiles": "C[C@H]1C[C@@H](N=S(C)(C)=O)CN(c2ccnc(-c3cnc4ccc(S(C)(=O)=O)cn34)n2)C1", "note": "[I-312, dimethyl(((3R,5S)-5-methyl-1-(2-(6-(methylsulfonyl)imidazo[1,2-a]pyridin-3-yl)pyrimidin-4-yl)piperidin-3-yl)imino)-λ6-sulfanone]", "IC50": "100 to 1000"}
{"smiles": "Cc1[nH]ncc1[C@H]1[C@H](C)N(c2ccnc(-c3cnc4ccc(C(F)(F)F)cn34)n2)CCN1C1COC1", "note": "[I-367]", "IC50": "100 to 1000"}
{"smiles": "COC(=O)C1CC12CCCN(c1ccnc(-c3cnc4ccc(Cl)cn34)n1)C2", "note": "(stereo not drawn) [I-133, methyl 5-(2-(6-chloroimidazo[1,2-a]pyridin-3-yl)pyrimidin-4-yl)-5-azaspiro[2.5]octane-1-carboxylate]", "IC50": "100 to 1000"}
{"smiles": "CC(C)(C)OC(=O)NC1CN(c2ccnc(-c3cnc4ccc(Cl)cn34)n2)CC[C@H]1O", "note": "(stereo in doubt) [I-243, tert-butyl ((3R,4R)-1-(2-(6-chloroimidazo[1,2-a]pyridin-3-yl)pyrimidin-4-yl)-4-hydroxypiperidin-3-yl)carbamate]", "IC50": "100 to 1000"}
{"smiles": "C[C@@H]1CN(c2ccnc(-c3cnc4ccc(C(F)(F)F)cn34)n2)C[C@H](C)N1CC1CCOCC1", "note": "[I-462, 3-(4-(cis-3,5-dimethyl-4-((tetrahydro-2H-pyran-4-yl)methyl)piperazin-1-yl)pyrimidin-2-yl)-6-(trifluoromethyl)imidazo[1,2-a]pyridine]", "IC50": "100 to 1000"}
{"smiles": "FC(F)(F)c1ccc2ncc(-c3nccc(N4CCN(CC5COC5)C(c5cn[nH]c5)C4)n3)n2c1", "note": "(stereo not drawn) [I-374, 3-(4-(4-(oxetan-3-ylmethyl)-3-(1H-pyrazol-4-yl)piperazin-1-yl)pyrimidin-2-yl)-6-(trifluoromethyl)imidazo[1,2-a]pyridine]", "IC50": "< 10"}
{"smiles": "NC(=O)C1CN(c2ccnc(-c3cnc4ccc(Cl)cn34)n2)CCO1", "note": "(stereo not drawn) [I-163, 4-(2-(6-chloroimidazo[1,2-a]pyridin-3-yl)pyrimidin-4-yl)morpholine-2-carboxamide]", "IC50": "10 to 100"}
{"smiles": "C[C@@H]1CN(c2ccnc(-c3cnc4ccc(C(F)(F)F)cn34)n2)C[C@H](C)N1C(=O)C1CC(F)(F)C1", "note": "[I-437, (3,3-difluorocyclobutyl)(cis-2,6-dimethyl-4-(2-(6-(trifluoromethyl)imidazo[1,2-a]pyridin-3-yl)pyrimidin-4-yl)piperazin-1-yl)methanone]", "IC50": "100 to 1000"}
{"smiles": "Cc1[nH]ncc1[C@@H]1CN(c2ccnc(-c3cnc4cc(F)c(C5CC5)cn34)n2)C[C@H](C)O1", "note": "[I-429, (2S,6R)-4-(2-(6-cyclopropyl-7-fluoroimidazo[1,2-a]pyridin-3-yl)pyrimidin-4-yl)-2-methyl-6-(5-methyl-1H-pyrazol-4-yl)morpholine]", "IC50": "< 10"}
{"smiles": "Cc1noc([C@H]2CN(c3ccnc(-c4cnc5ccc(C(F)F)cn45)n3)C[C@@H](C)O2)n1", "note": "[I-497, (2R,6R)-4-(2-(6-(difluoromethyl)imidazo[1,2-a]pyridin-3-yl)pyrimidin-4-yl)-2-methyl-6-(3-methyl-1,2,4-oxadiazol-5-yl)morpholine]", "IC50": "100 to 1000"}
{"smiles": "Cc1nnc(C)n1[C@@H]1C[C@@H](C)CN(c2nccc(-c3cnc4ccc(C(F)(F)F)cn34)n2)C1", "note": "[I-467, 3-(2-((3R,5R)-3-(3,5-dimethyl-4H-1,2,4-triazol-4-yl)-5-methylpiperidin-1-yl)pyrimidin-4-yl)-6-(trifluoromethyl)imidazo[1,2-a]pyridine]", "IC50": "10 to 100"}
{"biological_target": "GCN2 kinase (Homo sapiens (Human), UniProt Q9P2K8)", "assay": "GCN2 Enzyme Inhibition Assay (Transcreener ADP2 fluorescence polarization)", "format": "biochemical", "conditions": "Ki(app); 280 μM ATP, 200 μM (RS)7 peptide, 4 nM GCN2, 25° C.", "description": "as §1", "units": {"Ki": "nM"}}
{"smiles": "Cc1nnc([C@@H]2CN(c3ccnc(-c4cnc5ccc(Cl)cn45)n3)C[C@H](C)O2)o1", "note": "(relative stereo) [I-95, cis-4-(2-{6-chloroimidazo[1,2-a]pyridin-3-yl}pyrimidin-4-yl)-2-methyl-6-(5-methyl-1,3,4-oxadiazol-2-yl)morpholine]", "Ki": "10 to 100"}
{"smiles": "CC1CC(C(N)=O)C(C)N(c2ccnc(-c3cnc4cc(F)c(Cl)cn34)n2)C1", "note": "(stereo not drawn) [I-52, 1-[2-(6-Chloro-7-fluoro-imidazo[1,2-a]pyridin-3-yl)pyrimidin-4-yl]-2,5-dimethyl-piperidine-3-carboxamide]", "Ki": "< 10"}
{"smiles": "FC(F)(F)c1ccc2ncc(-c3nccc(N4CCCC(c5cn[nH]c5)C4)n3)n2c1", "note": "(stereo not drawn) [I-101, 4-[3-(1H-pyrazol-4-yl)piperidin-1-yl]-2-[6-(trifluoromethyl)imidazo[1,2-a]pyridin-3-yl]pyrimidine]", "Ki": "< 10"}
{"smiles": "O=C1NCCC2CN(c3ccnc(-c4cnc5ccc(Cl)cn45)n3)CCN12", "note": "(stereo not drawn) [I-96, 2-(2-{6-chloroimidazo[1,2-a]pyridin-3-yl}pyrimidin-4-yl)-octahydro-1H-pyrazino[1,2-c]pyrimidin-6-one]", "Ki": "< 10"}
{"smiles": "C[C@@H]1CN(c2ccnc(-c3cnc4ccc(C(F)(F)F)cn34)n2)[C@H](C)[C@H](c2cn[nH]c2)N1", "note": "(stereo in doubt) [I-38, 3-[4-[2,5-dimethyl-3-(1H-pyrazol-4-yl)piperazin-1-yl]pyrimidin-2-yl]-6-(trifluoromethyl)imidazo[1,2-a]pyridine]", "Ki": "10 to 100"}
{"smiles": "O=C1OCC2CN(c3ccnc(-c4cnc5ccc(Cl)cn45)n3)CCN12", "note": "(stereo not drawn) [I-99, 7-(2-{6-chloroimidazo[1,2-a]pyridin-3-yl}pyrimidin-4-yl)-hexahydro-1H-[1,3]oxazolo[3,4-a]pyrazin-3-one]", "Ki": "10 to 100"}
